Source: US20240109881A1, “Heteroaryl Compounds as Ligand Directed Degraders of IRAK4” (Bristol-Myers Squibb Company, priority 2022, published 2024)

What follows are compounds tested against T1, IRAK4 (Homo sapiens, UniProt Q9NWZ3) (assay: ALE THP1 HTRF (Advanced Lipoxidation End Product THP1 Homogeneous Time Resolved Fluorescence)). Settings: THP1 cells.
T1 construct: endogenous in cells; host or cells: THP-1 cells
T1 sequence (Q9NWZ3 1-460): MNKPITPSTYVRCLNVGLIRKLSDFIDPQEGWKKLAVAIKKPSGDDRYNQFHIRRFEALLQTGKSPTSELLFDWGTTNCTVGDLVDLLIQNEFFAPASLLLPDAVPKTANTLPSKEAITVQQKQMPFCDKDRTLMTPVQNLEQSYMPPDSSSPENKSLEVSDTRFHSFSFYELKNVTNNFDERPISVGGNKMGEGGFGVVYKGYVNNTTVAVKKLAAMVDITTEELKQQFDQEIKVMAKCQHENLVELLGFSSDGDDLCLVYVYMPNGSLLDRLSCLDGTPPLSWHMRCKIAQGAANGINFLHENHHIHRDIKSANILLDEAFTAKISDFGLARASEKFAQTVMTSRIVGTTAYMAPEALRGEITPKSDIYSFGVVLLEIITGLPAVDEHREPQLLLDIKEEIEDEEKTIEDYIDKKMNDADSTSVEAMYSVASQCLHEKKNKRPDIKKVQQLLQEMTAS
Type: cell-based
Experimental: For Homogenous Time Resolved Fluorescence (HTRF) assays, a Cisbio HTRF kit was used, which included: Lysis Buffer #1 4×, Blocking Reagent #3 100×, 20× Antibody 1 (Anti-IRAK4 d2), 20× Antibody 2 (Anti-IRAK4 k), and Detection Buffer.
4× Lysis Buffer was stored at 4° C. For use as 1× Lysis buffer, the 4× solution was diluted with de-ionized water (distilled water, Gibco Cat. #15230279) and 100× Blocking Reagent in a 1:3:0.04 volume ratio.
20× Antibody Solution aliquots were stored in −80° C. and the Detection Buffer was stored in 4° C. For use as a 1× Antibody Solution, the 20× Antibody Solution aliquot was diluted with Detection Buffer in a 1:19 volume ratio.
Cells were lysed at room temperature for 45 min with shaking. A BCA protein assay was performed and normalization was conducted to the desired total protein concentration with 1× lysis buffer. Next, 1× Antibody Solutions were prepared by adding 380 μL Detection Buffer to 20 μL 20× Antibody Solution aliquots and mixing well. 1× Antibody Solutions were combined 1:1 and briefly vortexed. For control wells, 20 μL 1× anti IRAK4-k Antibody Solution was saved. The 384-well plate (ProxiPlate-384 Plus, Perkin Elmer Cat. #6008289) was loaded by adding 4 μL of the mixed Antibody Solution to empty wells using a single channel repeater. Using a multi-channel repeater, 16 μL lysate was added per well, and any bubbles that were formed were popped with 20 μL pipette tips and Kimwipe edges. In column 10, triplicates of each control was prepared. In wells A10, B10, and C10, buffer control was prepared by adding 16 μL Lysis Buffer and 4 μL Detection Buffer. In wells D10, E10, and F10, cryptate control was prepared by adding 16 μL Lysis Buffer, 2 μL Detection Buffer, and 2 μL 1× anti IRAK4-k Antibody Solution. In wells G10, H10, and I10, a negative control was prepared by adding 16 μL Lysis Buffer and 4 μL mixed Antibody Solution. The plate was sealed with a clear seal and covered with an aluminum lid. The plate was spun down at 800 g for 5 min and incubated in the dark at room temperature overnight. The next day, the plate was spun down at 800 g for 5 min. The samples were analyzed by a plate reader (Envision, PerkinElmer) using the Desnor 384 HTRF program.
In the case of `N#Cc1cnc2c(cnn2-c2cc(NC3CCCC3)c(C(=O)NC3CCC(CN4CCC(C(=O)Nc5ccc(C6CCC(=O)NC6=O)cc5)CC4)CC3)cn2)c1` (centres unmarked) [P-31], the “ALE THP1 HTRF YMIN” value is reported as 18.2% and the EC50 is reported as 60 nM. In the case of `C[C@@H]1CN(c2ccc3c(c2)C(=O)N(C2CCC(=O)NC2=O)C3=O)C[C@H](C)N1CC1CCC(NC(=O)c2cnc(-n3ncc4cc(C#N)cnc43)cc2NC2CCCC2)CC1` (some centres unmarked) [P-32], the “ALE THP1 HTRF YMIN” value is reported as 21.0% and the EC50 is reported as 547 nM. In the case of `N#Cc1cnc2c(cnn2-c2cc(NC3CCCC3)c(-n3cc(C4CCC(NC(=O)C5CCN(c6ccc7c(c6)C(=O)N(C6CCC(=O)NC6=O)C7)CC5)CC4)nn3)cn2)c1` (centres unmarked) [P-33], the “ALE THP1 HTRF YMIN” value is reported as 15.9% and the EC50 is reported as 8 nM. With `N#Cc1cnc2c(cnn2-c2cc(NC3CCCC3)c(-c3cn([C@H]4CC[C@H](CN5CCC(C(=O)Nc6ccc(N7CCC(=O)NC7=O)cc6)CC5)CC4)nn3)cn2)c1` [P-34] the “ALE THP1 HTRF YMIN” value was 12.9% and the EC50 was 597 nM. `N#Cc1cnc2c(cnn2-c2cc(NC3CCCC3)c(C(=O)NC3CCC(CCN4CCN(c5ccc(C6CCC(=O)NC6=O)cc5)CC4)CC3)cn2)c1` (centres unmarked) [P-35] was tested, and the “ALE THP1 HTRF YMIN” value was 8.4% and the EC50 was 41 nM. For `CC([C@H]1CC[C@H](NC(=O)c2cnc(-n3ncc4cc(C#N)cnc43)cc2NC2CCCC2)CC1)N1CCN(c2ccc3c(c2)C(=O)N(C2CCC(=O)NC2=O)C3)CC1` (some centres unmarked) [P-36], the “ALE THP1 HTRF YMIN” value was 10.7% and the EC50 was 47 nM. In the case of `C[C@H]1CN(c2ccc3c(c2)C(=O)N(C2CCC(=O)NC2=O)C3=O)C[C@H](C)N1CC1CCC(NC(=O)c2cnc(-n3ncc4cc(C#N)cnc43)cc2NC2CCCC2)CC1` (some centres unmarked) [P-37], the “ALE THP1 HTRF YMIN” value is reported as 20.7% and the EC50 is reported as 132 nM. `CN(c1ccc2c(c1)C(=O)N(C1CCC(=O)NC1=O)C2=O)C1CCN(C[C@H]2CC[C@H](NC(=O)c3cnc(-n4ncc5cc(C#N)cnc54)cc3NC3CCCC3)CC2)CC1` (some centres unmarked) [P-38] was tested, and the “ALE THP1 HTRF YMIN” value was 24.3% and the EC50 was 119 nM. In the case of `N#Cc1cnc2c(cnn2-c2cc(NC3CCCC3)c(C(=O)NC3CCC(CN4CC5(CCN(c6ccc(C7CCC(=O)NC7=O)cc6)CC5)C4)CC3)cn2)c1` (centres unmarked) [P-39], the “ALE THP1 HTRF YMIN” value is reported as 24.3% and the EC50 is reported as 198 nM. In the case of `N#Cc1cnc2c(cnn2-c2cc(NC3CCCC3)c(-c3cn([C@H]4CC[C@H](CN5CCN(CC(=O)Nc6ccc(C7CCC(=O)NC7=O)cc6)CC5)CC4)nn3)cn2)c1` (some centres unmarked) [P-40, 2-(4-(((1r,4r)-4-(4-(6-(5-Cyano-1H-pyrazolo[3,4-b]pyridin-1-yl)-4-(cyclopentylamino)pyridin-3-yl)-1H-1,2,3-triazol-1-yl)cyclohexyl)methyl)piperazin-1-yl)-N-(4-(2,6-dioxopiperidin-3-yl)phenyl)acetamide], the “ALE THP1 HTRF YMIN” value is reported as 20.0% and the EC50 is reported as 276 nM. With `N#Cc1cnc2c(ccn2-c2cc(NC3CC3)c(C(=O)NC3CCC(CN4CCC(CNc5ccc(C6CCC(=O)NC6=O)cc5)CC4)CC3)cn2)c1` (centres unmarked) [P-42] the “ALE THP1 HTRF YMIN” value was 27.6% and the EC50 was 123 nM. `N#Cc1cnc2c(cnn2-c2cc(NC3CCCC3)c(C(=O)N[C@H]3CC[C@H](CN4CCC(CCc5ccc(C6CCC(=O)NC6=O)cc5)CC4)CC3)cn2)c1` (some centres unmarked) [P-43] was tested, and the “ALE THP1 HTRF YMIN” value was 14.7% and the EC50 was 312 nM. For `N#Cc1cnc2c(cnn2-c2cc(NC3CCCC3)c(-c3cn([C@H]4CC[C@H](CN5CCC(CNc6ccc(C7CCC(=O)NC7=O)cc6)CC5)CC4)nn3)cn2)c1` (some centres unmarked) [P-44], the “ALE THP1 HTRF YMIN” value was 38.8% and the EC50 was 172 nM. For `N#Cc1cnc2c(cnn2-c2cc(NC3CCCC3)c(-c3cn([C@H]4CC[C@H](C(=O)N5CCC(C(=O)Nc6ccc(N7CCC(=O)NC7=O)cc6)CC5)CC4)nn3)cn2)c1` [P-45, 1-[4-[4-[6-(5-Cyanopyrazolo[3,4-b]pyridin-1-yl)-4-(cyclopentylamino)-3-pyridyl]triazol-1-yl]cyclohexanecarbonyl]-N-[4-(2,4-dioxohexahydropyrimidin-1-yl)phenyl]piperidine-4-carboxamide], the “ALE THP1 HTRF YMIN” value was 11.4% and the EC50 was 28 nM. With `N#Cc1cnc2c(cnn2-c2cc(NC3CCCC3)c(C(=O)NC3CCC(CN4CCC(C(=O)Nc5ccc(C6CCC(=O)NC6=O)cc5)C(F)(F)C4)CC3)cn2)c1` (centres unmarked) [P-46] the “ALE THP1 HTRF YMIN” value was 31.5% and the EC50 was 74 nM. With `N#Cc1cnc2c(cnn2-c2cc(NC3CCCC3)c(-c3cn([C@H]4CC[C@H](CN5CCC(C(=O)Nc6ccc(C7CCC(=O)NC7=O)cc6)CC5)CC4)nn3)cn2)c1` (some centres unmarked) [P-47] the “ALE THP1 HTRF YMIN” value was 14.1% and the EC50 was 110 nM. In the case of `N#Cc1cnc2c(ccn2-c2cc(NC3CCCC3)c(C(=O)NC3CCC(CCN4CCN(c5ccc(C6CCC(=O)NC6=O)cc5)CC4)CC3)cn2)c1` (centres unmarked) [P-48], the “ALE THP1 HTRF YMIN” value is reported as 12.0% and the EC50 is reported as 99 nM. In the case of `N#Cc1cnc2c(ccn2-c2cc(NC3CC3)c(C(=O)NC3CCC(CCN4CCN(c5ccc(C6CCC(=O)NC6=O)cc5)CC4)CC3)cn2)c1` (centres unmarked) [P-49], the “ALE THP1 HTRF YMIN” value is reported as 10.9% and the EC50 is reported as 21 nM. With `CC(C)Nc1cc(-n2ncc3cc(C#N)cnc32)ncc1C(=O)NC1CCC(CCN2CCN(c3ccc(C4CCC(=O)NC4=O)cc3)CC2)CC1` (centres unmarked) [P-50] the “ALE THP1 HTRF YMIN” value was 7.5% and the EC50 was 11 nM. With `N#Cc1cnc2c(cnn2-c2cc(NC3CC3)c(C(=O)NC3CCC(CCN4CCN(c5ccc(C6CCC(=O)NC6=O)cc5)CC4)CC3)cn2)c1` (centres unmarked) [P-51] the “ALE THP1 HTRF YMIN” value was 7.9% and the EC50 was 9 nM. `N#Cc1cnc2c(cnn2-c2cc(NC3CCCC3)c(C(=O)NC3CCC(CCN4CCC(Nc5cccc(C6CCC(=O)NC6=O)c5)CC4)CC3)cn2)c1` (centres unmarked) [P-52] was tested, and the “ALE THP1 HTRF YMIN” value was 13.4% and the EC50 was 39 nM. With `N#Cc1cnc2c(c1)ncn2-c1cc(NC2CCCC2)c(C(=O)N[C@H]2CC[C@H](CN3CCN(c4ccc5c(c4)C(=O)N(C4CCC(=O)NC4=O)C5=O)CC3)CC2)cn1` (some centres unmarked) [P-53] the “ALE THP1 HTRF YMIN” value was 37.6% and the EC50 was 1890 nM. `N#Cc1cnc2c(cnn2-c2cc(NC3CCCC3)c(-c3cn([C@H]4CC[C@H](CCN5CCN(c6ccc(C7CCC(=O)NC7=O)cc6)CC5)CC4)nn3)cn2)c1` (some centres unmarked) [P-54, 1-(4-(Cyclopentylamino)-5-(1-((1r,4r)-4-(2-(4-(4-(2,6-dioxopiperidin-3-yl)phenyl)piperazin-1-yl)ethyl)cyclohexyl)-1H-1,2,3-triazol-4-yl)pyridin-2-yl)-1H-pyrazolo[3,4-b]pyridine-5-carbonitrile] was tested, and the “ALE THP1 HTRF YMIN” value was 14.6% and the EC50 was 31 nM. `N#Cc1cnc2c(cnn2-c2cc(NC3CCCC3)c(-n3cc([C@H]4CC[C@H](CN5CCN(c6ccc7c(c6)C(=O)N(C6CCC(=O)NC6=O)C7)CC5)CC4)nn3)cn2)c1` (some centres unmarked) [P-55, 1-[4-(Cyclopentylamino)-5-[4-[4-[[4-[2-(2,6-dioxo-3-piperidyl)-3-oxo-isoindolin-5-yl]piperazin-1-yl]methyl]cyclohexyl]triazol-1-yl]-2-pyridyl]pyrazolo[3,4-b]pyridine-5-carbonitrile] was tested, and the “ALE THP1 HTRF YMIN” value was 10.3% and the EC50 was 15 nM. With `N#Cc1cnc2c(cnn2-c2cc(NC3CCCC3)c(C(=O)NC3CCC(CCN4CCC(c5ccc(C6CCC(=O)NC6=O)cc5)CC4)CC3)cn2)c1` (centres unmarked) [P-56] the “ALE THP1 HTRF YMIN” value was 7.7% and the EC50 was 426 nM. For `C[C@@H]1CN(c2ccc(C3CCC(=O)NC3=O)cc2)C[C@H](C)N1CCC1CCC(NC(=O)c2cnc(-n3ncc4cc(C#N)cnc43)cc2NC2CCCC2)CC1` (some centres unmarked) [P-57], the “ALE THP1 HTRF YMIN” value was 9.7% and the EC50 was 194 nM. For `C[C@@H]1CN(c2ccc(C3CCC(=O)NC3=O)cc2)CCN1CCC1CCC(NC(=O)c2cnc(-n3ncc4cc(C#N)cnc43)cc2NC2CCCC2)CC1` (some centres unmarked) [P-59], the “ALE THP1 HTRF YMIN” value was 8.5% and the EC50 was 107 nM. With `CN(CC1CCC(NC(=O)c2cnc(-n3ncc4cc(C#N)cnc43)cc2NC2CCCC2)CC1)C1CCN(c2ccc(C3CCC(=O)NC3=O)cc2)CC1` (centres unmarked) [P-60] the “ALE THP1 HTRF YMIN” value was 11.3% and the EC50 was 945 nM. In the case of `N#Cc1cnc2c(cnn2-c2cc(NC3CCCC3)c(C(=O)N[C@H]3CC[C@H](CCN4CCN(c5ccc6c(c5)C(=O)N(C5CCC(=O)NC5=O)C6=O)CC4)CC3)cn2)c1` (some centres unmarked) [P-61], the “ALE THP1 HTRF YMIN” value is reported as 9.2% and the EC50 is reported as 101 nM. `C[C@H]1CN(c2ccc(C3CCC(=O)NC3=O)cc2)CCN1CCC1CCC(NC(=O)c2cnc(-n3ncc4cc(C#N)cnc43)cc2NC2CCCC2)CC1` (some centres unmarked) [P-62] was tested, and the “ALE THP1 HTRF YMIN” value was 6.6% and the EC50 was 70 nM. With `N#Cc1cnc2c(cnn2-c2cc(N[C@H]3CCC[C@@H]3O)c(C(=O)NC3CCC(CCN4CCN(c5ccc(C6CCC(=O)NC6=O)cc5)CC4)CC3)cn2)c1` (some centres unmarked) [P-63] the “ALE THP1 HTRF YMIN” value was 8.3% and the EC50 was 6 nM.
